Experimental data from PubChem BioAssay (NCI).
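Following 48 hours of exposure in 96-well plates, responses at five concentrations were used to interpolate endpoints linearly. Here, GI50 denotes the concentration required for 50% inhibition of growth. TGI is the concentration that stops growth completely.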

Tests used:
Assay in all cases: NCI tumour cell line growth inhibition, 48 h
SNB-19 CNS = test system: SNB-19 CNS
NCI-H522 lung = test system: NCI-H522 lung
KM12 colon = test system: KM12 colon
HS 578T breast = test system: HS 578T breast
786-0 renal = test system: 786-0 renal
K-562 leukemia = test system: K-562 leukemia
SN12C renal = test system: SN12C renal
UACC-62 melanoma = test system: UACC-62 melanoma
OVCAR-4 ovarian = test system: OVCAR-4 ovarian
OVCAR-3 ovarian = test system: OVCAR-3 ovarian

Compound | TGI (SNB-19 CNS) [µM] | TGI (NCI-H522 lung) [µM] | TGI (KM12 colon) [µM] | TGI (HS 578T breast) [µM] | TGI (786-0 renal) [µM] | TGI (K-562 leukemia) [µM] | TGI (SN12C renal) [µM] | TGI (UACC-62 melanoma) [µM] | TGI (OVCAR-4 ovarian) [µM] | TGI (OVCAR-3 ovarian) [µM] | GI50 (SNB-19 CNS) [µM] | GI50 (NCI-H522 lung) [µM] | GI50 (OVCAR-3 ovarian) [µM] | GI50 (KM12 colon) [µM] | GI50 (HS 578T breast) [µM] | GI50 (K-562 leukemia) [µM] | GI50 (SN12C renal) [µM] | GI50 (UACC-62 melanoma) [µM] | GI50 (OVCAR-4 ovarian) [µM]
COc1cc(-c2nc3nc(N4CCN(C)CC4)ccc3[nH]2)c(OC)c2[nH]c(COC(C)=O)nc12 | > 100 | > 100 | 83.3 | > 100 | 72.4 | > 100 | 98.8 | > 100 | > 100 | – | – | – | – | – | – | – | – | – | –
C/C(N=Nc1nc2ccccc2o1)=C1/C=CC=CN1O | > 100 | 26.7 | > 100 | > 100 | > 100 | > 100 | > 100 | > 100 | > 100 | 7.69 | – | – | – | – | – | – | – | – | –
O=C1C[C@H](c2ccccc2)C2(C(=O)c3ccccc3C2=O)[C@H](c2ccccc2)C1 | > 100 | > 100 | > 100 | > 100 | – | > 100 | > 100 | > 100 | > 100 | > 100 | – | – | – | – | – | – | – | – | –
O=C(O)/C=C/C(=O)O | > 100 | > 100 | > 100 | > 100 | > 100 | > 100 | > 100 | – | > 100 | > 100 | – | – | – | – | – | – | – | – | –
CC(=O)Nc1ccc(-c2nnc(SCC(=O)Nc3ccccc3C)o2)cc1 | – | > 100 | > 100 | – | > 100 | > 100 | > 100 | > 100 | > 100 | > 100 | – | – | – | – | – | – | – | – | –
COc1cc(C2S/C(=C/c3ccccc3)C(=O)N2c2cccc([N+](=O)[O-])c2)cc(OC)c1OC (stereo not given) | > 100 | > 100 | > 100 | > 100 | > 100 | > 100 | > 100 | > 100 | > 100 | – | – | – | – | – | – | – | – | – | –
C#CCOC(=O)C(N)CCCN=C(N)N (stereo not given) | > 100 | > 100 | > 100 | > 100 | > 100 | – | > 100 | – | > 100 | – | – | – | – | – | – | – | – | – | –
COC(=O)n1c(CBr)c(Br)c2ccccc21 | > 100 | 34.5 | > 100 | – | > 100 | > 100 | – | 86.4 | 66.2 | 50.9 | – | – | – | – | – | – | – | – | –
COc1ccc(/C=N/n2c(Cc3ccc(Cl)cc3)n[nH]c2=O)c(OC)c1 | 48.4 | 37.4 | > 100 | 37.3 | 52.8 | > 100 | – | 66.6 | 41.6 | > 100 | – | – | – | – | – | – | – | – | –
COc1ccc(C2c3cc4c(cc3OC(N3CCCCC3)C2C)OCO4)cc1 (stereo not given) | > 100 | > 100 | > 100 | 87.8 | > 100 | > 100 | > 100 | > 100 | – | > 100 | – | – | – | – | – | – | – | – | –
Cc1cc([N+](=O)[O-])ccc1N=NC(=O)NNc1ccc([N+](=O)[O-])cc1C | 37.8 | 51.7 | – | – | 30.6 | 39.9 | 63.8 | 26.3 | 31.9 | 34.4 | – | – | – | – | – | – | – | – | –
COc1nc2[nH]ccc2c(=O)n1C | > 100 | – | > 100 | – | – | > 100 | > 100 | – | 41.5 | – | – | – | – | – | – | – | – | – | –
c1ccc(Nc2nnc(-c3nsc4ccccc34)o2)cc1 | > 100 | – | > 100 | – | – | > 100 | > 100 | > 100 | > 100 | 45.2 | – | – | – | – | – | – | – | – | –
CC(C)(NC1=NCCO1)c1ccccc1 | > 100 | > 100 | > 100 | > 100 | > 100 | – | > 100 | > 100 | > 100 | > 100 | – | – | – | – | – | – | – | – | –
O=C(/C=C/c1ccccc1O)/C=C/c1ccccc1O | 4.86 | – | 3.3 | 12.3 | 3.22 | > 100 | 3.65 | 3.31 | 7.7 | 1.26 | – | – | – | – | – | – | – | – | –
CC(=O)OCC1OC(c2nnc(C)o2)=CC(OC(C)=O)C1OC(C)=O (stereo not given) | > 100 | > 100 | > 100 | > 100 | > 100 | > 100 | > 100 | – | > 100 | > 100 | – | – | – | – | – | – | – | – | –
COC1/C=C/C(C)C(C(C)C(OC)C(C)CCC(=O)C(C)C(C/C=C/N(C)C=O)OC)OC(=O)/C=C/C=C(\C)CC(OC)C(OC)C2=CC(=O)O[C@@H](C(C)C(OC)CC(OC)/C=C/C(C)C(O)C1)[C@H]2O (stereo not given in full) | – | 0.286 | 3.02 | 0.16 | 0.434 | > 100 | – | 0.314 | 0.365 | 0.277 | – | – | – | – | – | – | – | – | –
CC1(C)[C@@H]2C[C@H]1C(Cc1cccc(C[C@H]3c4cc(-c5ccccn5)ncc4[C@H]4C[C@@H]3C4(C)C)c1)c1cc(-c3ccccn3)ncc12 (stereo not given in full) | > 100 | > 56.7 | > 76.9 | > 100 | – | > 100 | > 100 | > 21 | > 100 | 37.2 | – | – | – | – | – | – | – | – | –
NC(=O)NCCCC(NC(=O)OCCCCCn1ccc(=O)[nH]c1=O)C(=O)O (stereo not given) | > 100 | – | > 100 | > 100 | > 100 | > 100 | > 100 | > 100 | > 100 | > 100 | – | – | – | – | – | – | – | – | –
O=C(c1ccccc1)N1C(=S)N(c2ccc([N+](=O)[O-])cc2)C(=Nc2ccccc2)C1=Nc1ccccc1 | > 100 | > 100 | > 100 | > 100 | > 100 | > 100 | > 100 | > 100 | – | > 100 | – | – | – | – | – | – | – | – | –
CC(C)CCC[C@@H](C)[C@H]1CCC2C3=CCC4C(=O)C=CC(=O)C4C3CC[C@@]21C (stereo not given in full) | > 100 | > 100 | > 100 | > 20.9 | – | > 100 | > 100 | > 100 | 0.498 | – | 0.543 | 0.803 | 0.348 | 0.338 | 0.528 | 0.139 | 0.256 | 0.542 | 0.159
OCC(O)C(O)C(O)C(/C=N\Nc1ncnc2ccc(Br)cc12)=N/Nc1ncnc2ccc(Br)cc12 (stereo not given) | > 100 | 54.9 | > 100 | > 100 | > 100 | > 100 | > 100 | – | > 100 | > 100 | – | – | – | – | – | – | – | – | –
